The values that follow come from patent US20130323361A1, “NUTRITIONAL COMPOSITIONS INCLUDING EXOGENOUS VITAMIN K2” (NESTEC S.A., priority 2009, published 2013).

Format in all cases: in vivo, Male Sprague-Dawley rats
The test system of one assay is plasma TNF-a. As to the kind of experiment: Plasma TNF-a in LPS-challenged rats. The following applies: 25 or 50 microgram oral daily over 7 days, LPS 0.5 mg/kg IP 2 hours after last dose, sacrifice four hours later, compared to LPS treated animals. The protocol:
(§1) Male Sprague-Dawley rats (175 g) are kept on a 12-h light:dark cycle with food (Harlan-Teklad Rodent Chow, Madison, Wis.) and water provided freely. Animals are administered daily doses of vitamin K2 (MK-7) or saline (control) via oral gavage over 7 days. Stock solutions of vitamin K2 are prepared containing 3.5 g/L HCO-60 and 1 g/L of […] in buffer A (0.15 M NaCl, 0.05 M Tris-HCl, pH 7.5). The K2 is dissolved by sonication during five pulses of 5 set with an amplitude of 6 pm. Solutions thus obtained are clear, homogeneous, and stable. Shortly before vitamin K administration the stock solutions are diluted five times with buffer A, leading to a final HCO-60 concentration of 0.7 g/L. Further dilutions (as required) are made with 0.7 g/L HCO-60 in buffer A. Each dilution step is followed by sonication as described above. In all cases vitamin K2 is administered to the rats in 0.5 mL samples, with either 25 or 50 microgram oral doses.
On the final day (Day 7), rodents are administered vitamin K2 and 2 hours later were given an IP dose of LPS (Escherichia coli serotype 0111:B4, L2630, Sigma) intraperitoneally (0.5 mg/kg of body weight). Four hours later animals are sacrificed.

The next assay relates to IKKα/β (Ser176/180). Nature of the assay: Immunoblot of phosphorylated IKKα/β in gastrocnemius muscle of LPS-challenged rats. The settings on record: 25 or 50 microgram oral daily over 7 days, LPS 0.5 mg/kg IP, compared to LPS treatment. The protocol:
(§2) Male Sprague-Dawley rats (175 g) are kept on a 12-h light:dark cycle with food (Harlan-Teklad Rodent Chow, Madison, Wis.) and water provided freely. Animals are administered daily doses of vitamin K2 (MK-7) or saline (control) via oral gavage over 7 days. Stock solutions of vitamin K2 are prepared containing 3.5 g/L HCO-60 and 1 g/L of […] in buffer A (0.15 M NaCl, 0.05 M Tris-HCl, pH 7.5). The K2 is dissolved by sonication during five pulses of 5 set with an amplitude of 6 pm. Solutions thus obtained are clear, homogeneous, and stable. […]
(§3) Analysis of mTOR Signaling to elFs—Gastrocnemius muscles are weighed and homogenized in 7 volumes of buffer containing 20 mM HEPES (pH 7.4), 100 mM potassium chloride, 0.2 mM EDTA, 2 mM EGTA, 50 mM sodium fluoride, 50 mM glycerophosphate, 0.1 mM phenylmethylsulfonyl fluoride, 1 mM benzamidine, 1 mM dithiothreitol (DTT), and 0.5 mM sodium vanadate. […] Samples are analyzed for the phosphorylation status of 4E-BP 1 (Thr37) and ribosomal protein S6 (Ser 235/236), the anti-phosphospecific antibodies were obtained from Cell Signaling Technology, Beverly, Mass. Additionally, samples are analyzed for phosphorylated IKKα/β (Ser176/180; Cell Signaling Technology) and phosphorylated p65 (Ser536; Cell Signaling Technology).

A further assay concerns NFαB p65. As to the kind of experiment: Immunoblot of phosphorylated p65 in gastrocnemius muscle of LPS-challenged rats. The settings on record: 25 or 50 microgram oral daily over 7 days, LPS 0.5 mg/kg IP, compared to LPS treatment. As for the experimental part: as §2, §3
For orientation: In western blotting, separated proteins are transferred to a membrane and probed.

A further assay concerns 4E-BP 1 (Thr37). Nature of the assay: mTOR signaling: 4E-BP1 phosphorylation in gastrocnemius muscle of LPS-challenged rats. The settings on record: 25 or 50 microgram oral daily over 7 days, LPS 0.5 mg/kg IP, compared to LPS treatment. As for the experimental part:
as §2, §3

The test system of assay [1] is ribosomal protein S6 (Ser 235/236). Nature of the assay: mTOR signaling: ribosomal protein S6 phosphorylation in gastrocnemius muscle of LPS-challenged rats. The following applies: 25 or 50 microgram oral daily over 7 days, LPS 0.5 mg/kg IP, compared to LPS treatment. As for the experimental part:
as §2, §3

For assay [2], the system named is total mixed muscle protein. Nature of the assay: Measurement of protein synthesis (fractional rate Ks, radioactive phenylalanine incorporation) in LPS-challenged rats. The following applies: 25 or 50 microgram oral daily over 7 days, LPS 0.5 mg/kg IP, under conditions of inflammatory sepsis, compared to LPS treatment. The protocol:
as §1, with “doses. […]” for “doses.”
Measurement of Protein Synthesis—The fractional rate of synthesis (Ks) is estimated from the rate of incorporation of radioactive phenylalanine into total mixed muscle protein using the specific radioactivity of serum phenylalanine as representative of the precursor pool. […]

As to `CC(C)=CCC/C(C)=C/CC/C(C)=C/CC/C(C)=C/CC/C(C)=C/CC/C(C)=C/CC/C(C)=C/CC1=C(C)C(=O)c2ccccc2C1=O` [K2, vitamin K2 (MK-7)], in the assay on plasma TNF-a, the “rise of plasma TNF-a” value is on record as “significant decrease in the rise”. Moreover, in the assay with IKKα/β (Ser176/180), the “drop in phosphorlyation for IKKα/β” value is reported as “significant blunting of the drop in phosphorlyation”. The “NFαB p65 induction” value with NFαB p65 is reported as “significant blunting”. For the same compound, the “decrease in 4E-BPI(Thr-37) phosphorylation” value in the assay on 4E-BP 1 (Thr37) is “abrogates the decrease”. Further, the “decrease in ribosomal protein S6 phosphorylation” value in assay [1] was “abrogates the decrease”. In addition, in assay [2], the “fractional rate of mixed muscle protein synthesis” value was “greater preservation”.
